Source: US11866409B2, “Apoptosis related protein in the tgf-beta signaling pathway (ARTS) mimetic compounds, compositions, methods and uses thereof in induction of differentiation and/or apoptosis of premalignant and malignant cells, thereby restoring their normal-like phenotype” (CARMEL-HAIFA UNIVERSITY ECONOMIC CORPORATION LTD., priority 2015, dated 2024)

Tests used:
[1] = test system: M2 cells (MCF10AT1K, premalignant breast cells); assay: Proliferation assay of M2 cells in 2D culture; format: cell-based, human; settings: 24 and 48 hours
Protocol: Human breast cancer cell lines MCF-10A (M1) was received from Prof. Israel Vlodavsky (Technion, Israel), MCF10AT1K (M2) and MCF10ACA1 h (M3) were received from Dr. Fred Miller (Barbara Ann Karmanos Cancer Institute). M1 and M2 cells were maintained in DMEM/F12 supplemented with 5% donor horse serum (DHS), 1% sodium pyrovate, 1% L-glutamine, 0.02 μg/ml epidermal growth factor (EGF; Peprotech), 0.01 mg/ml insulin (Sigma), 0.5 μg/ml hydrocortisone (Sigma), 0.1 μg/ml cholera toxin (Sigma) and 1% penicillin-streptomycin at 37° C., 5% CO2 incubator. M3 cells were maintained in DMEM/F12 supplemented with 5% DHS and 1% penicillin-streptomycin at 37° C. and incubated in 5% CO2 incubator.
The CellTiter 96 AqueousOne Solution of cell proliferation assay kit (Promega) was added to the wells for 2 hours to measure cell proliferation according the manufacturer's instructions. The absorbance was recorded at 490 nm.

XIAP [2] = target: T1, XIAP (Homo sapiens, UniProt P98170); assay: Proteasome-mediated degradation study, T47D breast cancer cells; format: cell-based; set-up: endogenous in cells; host or cells: T47D breast cancer cells
Protocol: (§1) The cells were lysed in WCE (whole-cell extract) buffer [[…] Hepes, pH 7.7, 0.3M NaCl, 1.5 mM MgCl2, 0.2 mM EDTA, 0.1% Triton X-100, 100 μg/ml PMSF and protease inhibitor cocktail (Roche, 1:100 dilution)]. 100 μg of total cell protein, measured with the Bio-Rad Protein Assay kit, were separated by SDS-PAGE (12%) followed by transfer for 2 h on to a nitrocellulose membrane. The membrane was blocked with 5% (w/v) non-fat dried skimmed milk powder in PBS supplemented with 0.05% Tween20 (PBS-T) for 1 hour at room temperature (R.T). Membrane was then probed with primary antibody at 4° C. overnight. Next, the membrane was incubated with the appropriate HRP-conjugated secondary antibody, for 1 hour at R.T. and washed 15 min×3 with PBS-T. WesternBright ECL (Advansta) was added to the membrane for 2 min and analyzed using ImageQuant LAS-4000 analyzer (GE Healthcare Life Sciences) & “ImageQuant LAS-4000” software (GE Healthcare Life Sciences). Densitometry analysis was performed using ImageQuant total lab 7 (GE Healthcare Life Sciences), image analysis software.
(§2) T47D breast cancer cells: 1*10^6 T47D cells were seeded on a 10 cm plate in RPMI and were propagated to 80% confluence. Cells were treated for 1 hour with either DMSO (control) or 30 μM A4 together with 20 μM MG-132 (proteasome inhibitor) or without MG-132. […]

Bcl-2 [3] = assay: Proteasome-mediated degradation study, HeLa cervical cancer cells; format: cell-based
Protocol: as §1
(§3) HeLa cervical cancer cells: 1.5*10^6 HeLa cells were seeded on a 10 cm plate in DMEM and were propagated to 80% confluence. Cells were treated for 2 hour with either DMSO (control) or 30 μM A4 together with 20 μM MG-132 (proteasome inhibitor) or without MG-132. […]

cCaspase = assay: Western blot, A375 human melanoma cells; format: cell-based; settings: 20 μM, 24 hrs
Protocol: as §1
(§4) The candidate molecules were next subjected to functional assays, examining their ability to induce apoptosis. Therefore, the expression of several apoptotic markers was examined in A375 human melanoma cells exposed to 20 μM of each of the candidate compounds. […] No effect on cCaspase or c-PARP was shown.

Bcl-2 [4] = assay: Western blot, A375 human melanoma cells; format: cell-based; settings: 20 μM, 24 hrs
Protocol: as §1, §4

c-PARP = assay: Western blot, A375 human melanoma cells; format: cell-based; settings: 20 μM, 24 hrs
Protocol: as §1, §4

M2 organoids = M2 organoids in 3D BME culture, polarization and lumen formation; format: cell-based, human
Protocol: Cells were harvested from their growth plates using 0.25% trypsin EDTA. Collected cells were cultured in Cultrex® growth factor reduced Basement Membrane Extract (BME: Trevigen, Inc) as follows: An 8 chamber glass slide system (Lab-TEK® II, Naperville, IL) was coated with 60 μl BME [Barkan D. et al., Cancer Research (2008)](protein concentration between 15 mg/ml; thickness˜1-2 mm). 5×10^3 cells per well were re-suspended in DMEM/F12 supplemented with 2.5% DHS and 2% BME and cultured on the coated slides. Slides were incubated at 37° C., 5% CO2 incubator. Cells were re-fed every 4 days. Cell morphology was monitored by light microscopy. Immunofluorescence images were captured by Nikon A1-R confocal laser scanning microscope (Haifa University, Haifa, Israel).
Laminin5 immunofluorescence staining: was performed as described by Barkan et al., [Cancer Research (2008)]. Briefly, cells cultured in 8 well chamber glass slides in 3D BME, as described above. The cultured cells were fixed and permeabalized for 5 minutes with 4% Paraformaldehyde (PFA) containing 5% sucrose and 0.2% Triton X-100, and re-fixed for an additional 25 minutes with 4% PFA containing 5% sucrose. The cells were washed for 10 minutes with PBS and an additional 10 minutes with PBS containing 0.05% Tween 20 (Sigma). Fixed cells were blocked with 3% BSA in PBS for 1 hour and incubated overnight at 4° C. with primary antibody (Rabbit polyclonal antibody to Laminin-5 (1:200)). The cells were washed three times with PBS for 15 minutes each, and incubated for 1 hour with […] conjugated to Alexa Fluor®647 (Invitrogen), washed as above and mounted with VECTASHIELD mounting medium with 4′,6-diamidino-2-phenylindole (DAPI). For F-actin staining cells were incubated over night with Alexa-Fluor®488 Phalloidin (1:40) (Molecular Probes) washed three times with PBS for 15 minutes each, and mounted with VECTASHIELD mounting medium with DAPI. The slides were imaged using Nikon A1-R confocal laser scanning microscope (Haifa University, Haifa, Israel). […]

Bcl-2 [5] = assay: Proteasome-mediated degradation study, T47D breast cancer cells; format: cell-based
Protocol: as §1, §2

XIAP [6] = target: T1, XIAP; assay: Western blot, A375 human melanoma cells; format: cell-based; set-up: endogenous in cells; host or cells: A375 human melanoma cells; settings: 20 μM, 24 hrs
Protocol: as §1, §4

[7] = target: T2, fluorescently labeled Bir3 (His-tagged) domain of XIAP, residues 252-350 (Homo sapiens, UniProt P98170); assay: MicroScale Thermophoresis (MST) binding to Bir3 domain of XIAP; settings: 340 nM fl-labeled Bir3, pH 5.6, 2% DMSO, read-out: calculated Kd
T2 construct: His-tagged Bir3 (XIAP 252-350) was expressed and purified; made in house
Protocol: His-tagged Bir3 (XIAP 252-350) was expressed and purified as previously described (Reingewertz et al, 2011). The purified Bir3 was labeled with the Monolith NT™ Protein Labeling Kit RED according to the supplied labeling protocol.
(§5) 340 nM of fl-labeled Bir3 was titrated with A4 compound in 1:1 dilutions beginning at 500 μM, in a 25 mM Tri-Sodium acetate buffer pH 5.6, 2% DMSO and 0.05% Tween 20. The measurements were performed on a NanoTemper Monolith instrument.
(§6) To further characterize the A4 candidate, MicroScale Thermophoresis (MST) was used to evaluate the binding of the A4 compound to fluorescently labeled Bir3 (His-tagged) domain of XIAP, residues 252-350. […] Microscale thermophoresis (MST) is a technology for the interaction analysis of biomolecules. Microscale thermophoresis is the directed movement of particles in a microscopic temperature gradient. Any change of the hydration shell of biomolecules due to changes in their structure/conformation results in a relative change of the movement along the temperature gradient and is used to determine binding affinities. MST allows measurement of interactions directly in solution without the need of immobilization to a surface (immobilization-free technology).

[8] = target: recombinant GST-tagged XIAP (Homo sapiens, UniProt P98170); assay: MicroScale Thermophoresis (MST) binding to whole XIAP; settings: GST-tagged XIAP (FIG. 4D), read-out: calculated Kd
Protocol: as §5, §6
To further characterize the A4 candidate, the MSTtechnology described above was used to evaluate the binding of the A4 compound to recombinant GST-tagged XIAP, as presented in FIG. 4D.

[9] = test system: 293 cells stably expressing Bcl-2 cherry reporter; assay: Combination with BH3 mimetic in Bcl-2 cherry reporter cells; format: cell-based; settings: A4 combined with ABT199, 293 cells Bcl-2 cherry reporter
Protocol: pcDNA-3.1 vector carrying Bcl2 with an mCherry fusion c′ terminus fluorescent tag and neomycin (G418) resistance sequences was transfected into HEK 293T cells using Turbofect (Fermentas). Cells were then treated with G418, and resistant fluorescent cells were further sorted and isolated by FACS-sorter. Mono-clones of the stably expressing Bcl2-mCherry and G418 resistance were propagated and used for the experiments.

XIAP [10] = target: T1, XIAP; assay: Proteasome-mediated degradation study, HeLa cervical cancer cells; format: cell-based; set-up: endogenous in cells; host or cells: HeLa cervical cancer cells
Protocol: as §1, §3

XIAP [11] = assay: Western blot, M2 cells transfected with 6myc-ARTS, caspase inhibition; format: cell-based, human
Protocol: (§7) The cells were transfected with either 6-MycTag-ARTS in pCS2 or sport-ARTS in pCMV plasmid, that was produced in Sarit Larisch lab as described previously (Larisch & Yi […]). For the transfection the Turbofect (Fermentas) was used with concentration of 0.1 μg/l DNA for 6-MycTag-ARTS and sport-ARTS plasmid.
as §1
(§8) The inventors next examined whether caspases mediate the cleavage of the N′-terminal part of ARTS. To this end, the inventors transfected M2 cells with 6myc-ARTS and cells were either untreated or treated with a pan inhibitor of all caspases, Q-VD. […] In contrast, no change in XIAP levels was shown (FIG. 7D).

6myc-ARTS = assay: as above; format: cell-based, human
Protocol: as §7, §1, §8

Bcl-2 [12] = assay: as above; format: cell-based, human
Protocol: as §7, §1, §8

[13] = 30 μM A4 + 20 μM MG-132, 1 hour
[14] = 30 μM A4 + 20 μM MG-132, 2 hour

T1 sequence (P98170 whole entry): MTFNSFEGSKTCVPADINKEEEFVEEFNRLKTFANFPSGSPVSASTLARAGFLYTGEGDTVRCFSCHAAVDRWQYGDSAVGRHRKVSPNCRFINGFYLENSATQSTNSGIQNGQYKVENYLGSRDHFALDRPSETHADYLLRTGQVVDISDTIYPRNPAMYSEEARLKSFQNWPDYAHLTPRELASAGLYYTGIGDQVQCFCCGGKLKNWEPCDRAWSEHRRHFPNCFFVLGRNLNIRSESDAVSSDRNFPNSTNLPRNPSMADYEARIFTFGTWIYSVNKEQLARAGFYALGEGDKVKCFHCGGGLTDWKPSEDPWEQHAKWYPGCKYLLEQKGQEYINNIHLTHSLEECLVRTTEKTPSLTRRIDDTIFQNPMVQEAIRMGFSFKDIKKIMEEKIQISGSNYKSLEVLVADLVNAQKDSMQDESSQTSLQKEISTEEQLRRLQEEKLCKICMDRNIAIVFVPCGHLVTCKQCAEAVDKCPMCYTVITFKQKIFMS
T2 sequence (P98170 252-350): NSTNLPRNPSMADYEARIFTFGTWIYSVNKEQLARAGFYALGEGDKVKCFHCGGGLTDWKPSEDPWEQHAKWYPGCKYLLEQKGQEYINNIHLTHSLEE
Chain of recombinant GST-tagged XIAP (P98170 whole entry): as the sequence (P98170 whole entry) above

COC(=O)c1[nH]c2ccc(Cl)cc2c1NC(=O)CN1CCN(Cc2ccccc2)CC1 [A4, methyl 5-chloro-3-[[2-[4-(phenylmethyl)piperazin-1-yl]acetyl]amino]-1H-indole-2-carboxylate] was tested, and the apoptotic cells [1] was “only low amount of apoptotic cells”, the cell proliferation [1] was “decrease in cell proliferation” and the “XIAP levels with proteasome inhibitor” value (XIAP [2]; [13]) was “restored”. The XIAP levels (XIAP [2]; 30 μM A4, 1 hour) was “specific decrease”, the “Bcl-2 levels with proteasome inhibitor” value (Bcl-2 [3]; [14]) was “restored” and the Bcl-2 levels (Bcl-2 [3]; 30 μM A4, 2 hour) was “decrease”. For the same compound, the “effect on cCaspase” value (cCaspase) was “No effect”, the “levels of Bcl-2” value (Bcl-2 [4]) was “clearly reduced” and the “effect on c-PARP” value (c-PARP) was “No effect”. For the same compound, the “apicobasal polarization (GM130, Laminin 5 staining)” value (M2 organoids; 40 μM, 7 days) was “initiation of apical staining of GM130 and basal staining of Laminin 5”, the organoid phenotype (M2 organoids; 40 uM, 14 days) was “conversion thereof to a normal-like phenotype” and the “polarization and lumen formation” value (M2 organoids; 40 uM, 14 days) was “apicobasal polarization of M2 organoids followed by luminal formation”. For the same compound, the “Bcl-2 levels with proteasome inhibitor” value (Bcl-2 [5]; [13]) was “restored”, the Bcl-2 levels (Bcl-2 [5]; 30 μM A4, 1 hour) was “decrease” and the “levels of XIAP” value (XIAP [6]) was “clearly reduced”. The Kd [7] was 46.1 ± 3.65 µM, the Kd [8] was 34.6 ± 2.48 µM and the “effect of combination with BH3 mimetic” value [9] was “synergetic effect”. The “XIAP levels with proteasome inhibitor” value (XIAP [10]; [14]) was “restored” and the XIAP levels (XIAP [10]; 30 μM A4, 2 hour) was “specific decrease”.

CC(C)[C@H](NC(=O)c1ccc2ccccc2n1)C(=O)N[C@@H](CC(=O)O)C(=O)COc1c(F)cccc1F [Q-VD] was tested, and the XIAP levels (XIAP [11]) was “no change”, the “cleaved 6-myc ARTS” value (6myc-ARTS) was “decrease” and the “uncleaved 6myc-ARTS” value (6myc-ARTS) was “increase”. For the same compound, the Bcl-2 levels (Bcl-2 [12]) was “significantly increased”.
